Values of other authors in patent US20250090617A1, “FORMULATIONS FOR TREATING OBESITY AND DIABETES AND FOR PROVIDING OTHER HEALTH RELATED BENEFITS” (Healthrite Partners, LLC, priority 2019, published 2025).

System: cellular ATP
Details: several studies, including clinical studies in humans

SMILES: Cc1nc(-c2ccc(OCC(C)C)c(C#N)c2)sc1C(=O)O [Febuxostat]
- effect on cellular ATP: increase in cellular ATP

SMILES: Oc1ncnc2[nH]ncc12 [Allopurinol]
- effect on cellular ATP: increase in cellular ATP

SMILES: OC[C@H]1O[C@@H](n2cnc3c(O)ncnc32)[C@H](O)[C@@H]1O [Inosine]
- effect on cellular ATP: did not affect ATP levels
